Experiments:
[1] = molar heat capacity at constant pressure; xn = mol fraction of the nth substance listed; settings: 101 kPa, Liquid
[2] = xn = mol fraction of the nth substance listed; settings: 101 kPa, Liquid

CCCC[n+]1cccc(C)c1.F[B-](F)(F)F [1-butyl-3-methylpyridinium tetrafluoroborate] + O
Settings | mass density, [2] [kg/m3] | molar heat capacity at constant pressure, [1] [J/K/mol]
293.15 K, x1 = 0.0015 | – | 76.7
293.15 K, x1 = 0.002 | – | 77.4
293.15 K, x1 = 0.0027 | – | 77.7
293.15 K, x1 = 0.0036 | – | 78.1
293.15 K, x1 = 0.0102 | – | 81
293.15 K, x1 = 0.0494 | 1066 | –
293.15 K, x1 = 0.0938 | – | 112.7
293.15 K, x1 = 0.0973 | 1095.9 | –
293.15 K, x1 = 0.1885 | – | 142.4
293.15 K, x1 = 0.2312 | 1139.7 | –
293.15 K, x1 = 0.2704 | – | 167
293.15 K, x1 = 0.3559 | 1157.3 | –
293.15 K, x1 = 0.362 | – | 193.8
293.15 K, x1 = 0.4035 | 1161.8 | –
293.15 K, x1 = 0.4454 | – | 218.2
293.15 K, x1 = 0.5195 | 1167.9 | –
293.15 K, x1 = 0.6432 | – | 275.2
293.15 K, x1 = 0.7087 | 1179.5 | –
293.15 K, x1 = 0.7512 | 1181.2 | –
293.15 K, x1 = 0.8094 | – | 325.2
293.15 K, x1 = 0.8791 | – | 346
293.15 K, x1 = 0.8838 | 1183.2 | –
293.15 K, x1 = 0.9468 | – | 367.8
293.15 K, x1 = 1 | 1188.6 | 385.8
298.15 K, x1 = 0.0015 | – | 76.7
298.15 K, x1 = 0.002 | – | 77.4
298.15 K, x1 = 0.0027 | – | 77.7
298.15 K, x1 = 0.0036 | – | 78.2
298.15 K, x1 = 0.0102 | – | 81.1
298.15 K, x1 = 0.0494 | 1063.3 | –
298.15 K, x1 = 0.0938 | – | 113.1
298.15 K, x1 = 0.0973 | 1092.7 | –
298.15 K, x1 = 0.1885 | – | 143.1
298.15 K, x1 = 0.2312 | 1136 | –
298.15 K, x1 = 0.2704 | – | 167.8
298.15 K, x1 = 0.3559 | 1153.6 | –
298.15 K, x1 = 0.362 | – | 195
298.15 K, x1 = 0.4035 | 1158.2 | –
298.15 K, x1 = 0.4454 | – | 219.3
298.15 K, x1 = 0.5195 | 1164.3 | –
298.15 K, x1 = 0.6432 | – | 276.9
298.15 K, x1 = 0.7087 | 1176 | –
298.15 K, x1 = 0.7512 | 1177.8 | –
298.15 K, x1 = 0.8094 | – | 327.3
298.15 K, x1 = 0.8791 | – | 348.3
298.15 K, x1 = 0.8838 | 1179.8 | –
298.15 K, x1 = 0.9468 | – | 370.4
298.15 K, x1 = 1 | 1185.2 | 387.7
303.15 K, x1 = 0.0015 | – | 76.8
303.15 K, x1 = 0.002 | – | 77.5
303.15 K, x1 = 0.0027 | – | 77.7
303.15 K, x1 = 0.0036 | – | 78.2
303.15 K, x1 = 0.0102 | – | 81.2
303.15 K, x1 = 0.0494 | 1060.4 | –
303.15 K, x1 = 0.0938 | – | 113.4
303.15 K, x1 = 0.0973 | 1089.4 | –
303.15 K, x1 = 0.1885 | – | 143.8
303.15 K, x1 = 0.2312 | 1132.3 | –
303.15 K, x1 = 0.2704 | – | 168.6
303.15 K, x1 = 0.3559 | 1150 | –
303.15 K, x1 = 0.362 | – | 196.1
303.15 K, x1 = 0.4035 | 1154.5 | –
303.15 K, x1 = 0.4454 | – | 220.5
303.15 K, x1 = 0.5195 | 1160.8 | –
303.15 K, x1 = 0.6432 | – | 278.6
303.15 K, x1 = 0.7087 | 1172.5 | –
303.15 K, x1 = 0.7512 | 1174.3 | –
303.15 K, x1 = 0.8094 | – | 329.5
303.15 K, x1 = 0.8791 | – | 350.8
303.15 K, x1 = 0.8838 | 1176.3 | –
303.15 K, x1 = 0.9468 | – | 373
303.15 K, x1 = 1 | 1181.7 | 390.1
308.15 K, x1 = 0.0015 | – | 76.9
308.15 K, x1 = 0.002 | – | 77.6
308.15 K, x1 = 0.0027 | – | 77.8
308.15 K, x1 = 0.0036 | – | 78.3
308.15 K, x1 = 0.0102 | – | 81.3
308.15 K, x1 = 0.0494 | 1057.5 | –
308.15 K, x1 = 0.0938 | – | 113.8
308.15 K, x1 = 0.0973 | 1086 | –
308.15 K, x1 = 0.1885 | – | 144.5
308.15 K, x1 = 0.2312 | 1128.7 | –
308.15 K, x1 = 0.2704 | – | 169.5
308.15 K, x1 = 0.3559 | 1146.4 | –
308.15 K, x1 = 0.362 | – | 197.3
308.15 K, x1 = 0.4035 | 1150.9 | –
308.15 K, x1 = 0.4454 | – | 221.7
308.15 K, x1 = 0.5195 | 1157.2 | –
308.15 K, x1 = 0.6432 | – | 280.3
308.15 K, x1 = 0.7087 | 1169.1 | –
308.15 K, x1 = 0.7512 | 1170.8 | –
308.15 K, x1 = 0.8094 | – | 331.7
308.15 K, x1 = 0.8791 | – | 353.3
308.15 K, x1 = 0.8838 | 1172.9 | –
308.15 K, x1 = 0.9468 | – | 375.7
308.15 K, x1 = 1 | 1178.3 | 392.8
313.15 K, x1 = 0.0015 | – | 77
313.15 K, x1 = 0.002 | – | 77.6
313.15 K, x1 = 0.0027 | – | 77.9
313.15 K, x1 = 0.0036 | – | 78.4
313.15 K, x1 = 0.0102 | – | 81.5
313.15 K, x1 = 0.0494 | 1054.5 | –
313.15 K, x1 = 0.0938 | – | 114.2
313.15 K, x1 = 0.0973 | 1082.5 | –
313.15 K, x1 = 0.1885 | – | 145.2
313.15 K, x1 = 0.2312 | 1125 | –
313.15 K, x1 = 0.2704 | – | 170.4
313.15 K, x1 = 0.3559 | 1142.7 | –
313.15 K, x1 = 0.362 | – | 198.4
313.15 K, x1 = 0.4035 | 1147.3 | –
313.15 K, x1 = 0.4454 | – | 222.8
313.15 K, x1 = 0.5195 | 1153.7 | –
313.15 K, x1 = 0.6432 | – | 282.1
313.15 K, x1 = 0.7087 | 1165.6 | –
313.15 K, x1 = 0.7512 | 1167.4 | –
313.15 K, x1 = 0.8094 | – | 334
313.15 K, x1 = 0.8791 | – | 355.8
313.15 K, x1 = 0.8838 | 1169.5 | –
313.15 K, x1 = 0.9468 | – | 378.4
313.15 K, x1 = 1 | 1174.9 | 395.9
318.15 K, x1 = 0.0015 | – | 77.1
318.15 K, x1 = 0.002 | – | 77.7
318.15 K, x1 = 0.0027 | – | 78
318.15 K, x1 = 0.0036 | – | 78.4
318.15 K, x1 = 0.0102 | – | 81.7
318.15 K, x1 = 0.0494 | 1051.3 | –
318.15 K, x1 = 0.0938 | – | 114.7
318.15 K, x1 = 0.0973 | 1079 | –
318.15 K, x1 = 0.1885 | – | 146
318.15 K, x1 = 0.2312 | 1121.2 | –
318.15 K, x1 = 0.2704 | – | 171.4
318.15 K, x1 = 0.3559 | 1139.1 | –
318.15 K, x1 = 0.362 | – | 199.5
318.15 K, x1 = 0.4035 | 1143.7 | –
318.15 K, x1 = 0.4454 | – | 224
318.15 K, x1 = 0.5195 | 1150.2 | –
318.15 K, x1 = 0.6432 | – | 283.8
318.15 K, x1 = 0.7087 | 1162.2 | –
318.15 K, x1 = 0.7512 | 1163.9 | –
318.15 K, x1 = 0.8094 | – | 336.3
318.15 K, x1 = 0.8791 | – | 358.5
318.15 K, x1 = 0.8838 | 1166.1 | –
318.15 K, x1 = 0.9468 | – | 381.3
318.15 K, x1 = 1 | 1171.6 | 399.3
